The subject of one data set is PLA2. The following applies: Salari et al., Mol. Pharm. 28:546 (1985), cited from earlier work.
The test system of a further data set is phospholipase A2. Briefly: stimulation of phospholipase A2 activity in vitro. The data set is classed as biochemical. The following applies: in vitro (unpublished results). The text has this: As used herein phospholipase A2 activating agents, PLAA, are defined as agents which induce phospholipase A2 activity. A variety of procedures are known in the art for assaying an agent for PLAA activity. These include, but are not limited to, assaying cultured endothelial cells or smooth muscle cells for the release of arachidonic acid in the presence of the agent as well as cell free systems which utilize 1-palmitoyl-2-[14C]arachidonyl-sn-glycero-3-phospho-[methy13H]choline to assay for PLA2 activity (see Clark et al., J. Biol. Chem. 261:10713-10718 (1986) and Clark et al., Biochem. J. 250:125-132 (1988).

The test system of another data set is C6 glioma cells. Briefly: rat air pouch glioma model: tumor thickness, weight and necrosis. The data set is classed as in vivo. How it is done: C6 glioma cells (10^7) were injected into rats and allowed to grow for two weeks. The average thickness of the tumors was approximately 7±2 mm in thickness. The animals were then treated with 500 μg of either agarose complexed PLAP peptide SEQ ID NO. 1 or agarose complexed PLAP-like peptide in which the two adjacent prolines were deleted. After three days of treatment, the animals were given a second injection of the peptide and the tumors were measured on day 6 of the treatment regimen.
C6 glioma cells (10^7) were injected into rats and allowed to grow for two weeks as in FIG. 1. By day 14, the tumors were approximately 7 mm in thickness. The animals were then given the indicated concentrations of the agarose complexed PLAP peptide. The thickness of the tumor was monitored after three days of treatment and the values are shown as a percentage of reduction in the tumor cell mass.
Sprague-Dawley rats were injected with 10^6 C-6 glioma cells. The tumors were allowed to grow for 14 days prior to injection of 500 μg of agarose complexed PLAP peptide. Tumor thickness was measured after 3 and 6 days of treatment.
G6 glioma cells, derived from a glioma induced in the Wistar strain of rat and obtained from the American Type Culture Collection (ATCC) were maintained in tissue culture. The cell cultures were grown to confluence in 75 cm^2 tissue culture flasks, detached from the flasks by addition of trypsin/EDTA, washed twice in fresh culture medium, and resuspended at a final concentration of 2×10^6 cells per ml.
Air pouches were formed in female Sprague-Dawley rats (average age 6-8 weeks; average weight 180 grams). Briefly, 20 cc's of sterile air was injected into the subcutaneous tissues on the dorsum of the animal to form an air filled pouch. Inflation of the pouches was maintained by re-injection of sterile air every other day. Pouches were ready for use on day 7.
Suspension of cultured glioma cells (1×10^6 -1×10^7 cells) were injected into the air pouches. By day 14, the tumors typically were of sufficient size to be used as described below.
Animals were injected with 500 μgrams of PLAP peptide bound to agarose beads. A similar number of rats were injected with unmodified agarose beads as a control. In order to ensure uniform distribution of the bound peptide, the total volumes injected were increased to 5 ml by the addition of sterile saline immediately prior to injection. Since tumor growth was characterized by formation of large effusions containing high levels of eicosanoids, the tumors were aspirated immediately prior to injection of PLAP peptide or agarose beads alone.
Seventy-two hours after injection, the animals were euthanized by using CO2 gas. The tumor effusions were aspirated and the tumor cell numbers were determined using a Coulter counter. The samples were frozen and stored at -80° for later eicosanoid assay. The tumor masses were removed through an incision made in the dorsum of the animal and weighed. […]
To determine the effect of concentration of PLAP peptide on tumor cell number and tumor size, Sprague-Dawley rats were injected with 10^6 C-6 glioma cells as described above, and were then treated with either 0, 0.25, 0.5, or 1 mg/rat PLAP. Three days after treatment, the maximum thickness of the tumors was measured.
To determine the length of the effectiveness of administering PLAP peptide, Sprague-Dawley rats were injected with 10^6 C-6 glioma cells as described above. […] Tumor thickness was measured 3 and 6 days after treatment.

Data set [1] deals with eicosanoids in exudates obtained from tumors. Kind of data set: measurement of eicosanoids in tumor exudates. Type of data set: in vivo, rat. The following applies: 72 hours after injection. How it is done: Seventy-two hours after injection, the animals were euthanized by using CO2 gas. The tumor effusions were aspirated and the tumor cell numbers were determined using a Coulter counter. The samples were frozen and stored at -80° for later eicosanoid assay. The tumor masses were removed through an incision made in the dorsum of the animal and weighed. Samples of tumor tissues were stored in formalin for routine histology or snap-frozen in liquid N2 for immunocytochemistry.
Eicosanoid levels in exudates obtained from tumors were determined using enzyme-lined immunoassay kits purchased from Cayman Chemical Company (Ann Arbor, Mich.) and used as recommended by the supplier. Calculations of the amounts of eicosanoids were made using EPA software purchased from the same company.

For a further data set, the system named is mononuclear cells. Kind of data set: immunocytochemical analysis of tumors (mononuclear cell infiltrate). The data set is classed as in vivo, rat. Particulars: frozen sections of tumor tissues reacted with MAbs. The source says:
Snap-frozen tissue samples were sectioned on a cryotome, fixed in acetone, blocked with levamisole, and then reacted with monoclonal antibodies to cell surface determinants expressed by mononuclear cells. After washing, tissue sections were reacted with biotin-labelled rat anti-mouse IgG monoclonal antibodies, alkaline phosphate-labelled avidin-biotin complex (ABC, Vecta, Burlinghame, Calif.) and color developed by the addition of appropriate substrate. Sections were then mounted in Permount (Fisher Scientific) and read in an Olympus light microscope.
To determine whether PLAP-induced tumor necrosis was associated with specific cellular events, frozen sections of tumor tissues were reacted with MAbs directed at subpopulations of mononuclear cells. […] Thus, PLAP-induced tumor necrosis appears to be mediated through enhanced NK/LAK cell activation.

For data set [2], the system named is MTVL murine mammary tumor cells. Briefly: survival of mice injected with mammary tumor cells. Type of data set: in vivo, Balb C mice. Particulars: 200 μg agarose bound peptide 1 and 4 days after tumor cells; vs agarose beads alone; p<0.001 (FIG. 4). As to the method: Balb C mice were injected with 10^6 MTVL murine mammary tumor cells. The mice were treated with 200 μg of agarose complexed PLAP peptide 1 and 4 days after injection of the tumor cells. The animals were checked daily for survival. The results obtained are the average for twenty animals in each group. Animals that received no treatment (.smallcircle.),animals that received PLAP ( ) p<0.001.
The effectiveness of stimulating tumor necrosis for tumors other than gliomas was tested. To test effectiveness of the present methods in treating neoplastic mammary cells, Balb C mice were injected with 10^6 MTVL murine mammary tumor cells as described above for the glioma cells. The mice were treated with 200 μg of agarose bound PLAP peptide 1 and 4 days after injection of the tumor cells. The animals were checked daily for survival. FIG. 4 provides the average of the results obtained for twenty animals in each group.

In data set [3] the test system is LL-2 murine lung tumor cells. Briefly: survival of mice injected with lung tumor cells. Particulars: 200 μg agarose bound peptide 1 and 4 days after tumor cells; vs agarose beads alone; p<0.0001 (FIG. 5). Type of data set: in vivo, C57 Bl/6 mice. How it is done: C57 Bl/6 mice were injected with 10^6 LL-2 murine lung tumor cells. The mice were treated with 200 μg of agarose complexed PLAP peptide 1 and 4 days after injection of the tumor cells. The animals were checked daily for survival. The result obtained are the average for twenty animals in each group. Animals that received no treatment (.smallcircle.), animals that received PLAP ( ) p<0.0001.
To test the effectiveness of the present methods in treating neoplastic lung cells, C57 Bl/6 mice were injected with 10^6 LL-2 murine lung tumor cells as described above for the glioma cells. The mice were treated with 200 μg of agarose bound PLAP peptide 1 and 4 days after injection of the tumor cells. The animals were checked daily for survival. FIG. 5 provides the average of the result obtained for twenty animals in each group were used.

The next data set has as its system neutrophil. Particulars: Bomalaski et al., J. Immuno. (1989); cited from earlier work.

Like-named read-outs stand apart in the source and are kept apart here.

On to `CC[C@H](C)[C@H](NC(=O)CN)C(=O)NCC(=O)N[C@@H](C)C(=O)N[C@H](C(=O)N[C@@H](CC(C)C)C(=O)N[C@@H](CCCCN)C(=O)N[C@H](C(=O)N[C@@H](CC(C)C)C(=O)N[C@H](C(=O)N[C@H](C(=O)NCC(=O)N[C@@H](CC(C)C)C(=O)N1CCC[C@H]1C(=O)N[C@@H](C)C(=O)N[C@@H](CC(C)C)C(=O)N[C@H](C(=O)N[C@@H](CO)C(=O)N[C@@H](Cc1c[nH]c2ccccc12)C(=O)N[C@H](C(=O)N[C@@H](CCCCN)C(=O)N[C@@H](CCCNC(=N)N)C(=O)N[C@@H](CCCCN)C(=O)N[C@@H](CCCNC(=N)N)C(=O)N[C@@H](CCC(N)=O)C(=O)N[C@@H](CCC(N)=O)C(N)=O)[C@@H](C)CC)[C@@H](C)CC)[C@@H](C)O)[C@@H](C)O)C(C)C)C(C)C` [melittin], for which the “stimulation of PLA2 activity” value with PLA2 was “shown to stimulate PLA2 activity”; with PLA2 (listed as Melittin), “has phospholipase activating activity”.

With “GLU-SER-PRO-LEU-ILE-ALA-LYS-VAL-LEU-THR-THR-GLU-PRO -PRO-ILE-ILE-THR-PRO-VAL-ARG-ARG-(THR-LEU) [PLAP peptide]”, the “stimulation of phospholipase A2 activity in vitro” value in the data set on phospholipase A2 is given as “stimulated phospholipase A2 activity”. For the same molecule, the “reduction in tumor size as a function of amount administered” value in the data set on C6 glioma cells (rats, 0, 0.25, 0.5 or 1 mg/rat, maximum tumor thickness three days after treatment (FIG. 2)) was “concentration dependent”. For the same molecule, the “duration of tumor necrosis” value with C6 glioma cells (rats, 500 μg agarose bound peptide, tumor thickness 3 and 6 days after treatment (FIG. 3)) was “observed to continue even at 6 days”. In addition, the “tumor regression / size of the tumor” value in the data set on C6 glioma cells (rats, 500 μg agarose complexed peptide, second injection after three days, tumors measured on day 6 (FIG. 1)) is given as “profound effect on the size of the tumor”. The “tumor weight compared with control animals” value with C6 glioma cells (rats, 500 μg peptide bound to agarose beads, 72 hours) is “reduction in tumor weight”. For the same molecule, in the data set on C6 glioma cells (rats, 500 μg peptide bound to agarose beads, tumor tissues examined after 72 hours), the tumor necrosis result is on record as “caused significant necrosis”. In data set [1], the “amount of LTC4 in exudates from tumors compared with those injected with agarose beads” value is recorded as “No changes”, the “amount of PGE2 in treated tumors compared with tumors injected with agarose beads” value is given as 50 fold, the “amount of PGI2 in exudates from tumors compared with those injected with agarose beads” value was “No changes” and the “amount of leukotriene B4 (LTB4) in treated tumors compared with tumors injected with agarose beads” value worked out at 20 fold. Also, in the data set with mononuclear cells, the “OXI (cytotoxic T lymphocyte) and NRK-1 positive (NK) cells in the infiltrate” value was “high numbers”; the “mononuclear cell infiltrate in tumor tissues” value is recorded as “stimulated mononuclear cell infiltrate”. Moreover, the “survival of mice injected with mammary tumor cells” value in data set [2] was “increased the survival”. In data set [3], the “survival of mice injected with lung tumor cells” value was “increased the survival”.

Regarding TNF-alpha, the “stimulation of PLA2 activity” value in the data set with PLA2 is given as “shown to stimulate PLA2 activity”.

B1: PLAP: mouse phospholipase A2 activating protein, molecular mass approximately 28,000 (protein, UniProt P27612 1-794, looked up)
Phospholipase A-2-activating …: MASGASRYRLSCSLPGHELDVRGLVCCLYPPGAFVSVSRDRTTRLWAPDSPNRGFTEMHCMSGHSNFVSCVCIIPSSDIYPHGLIATGGNDHNICIFSLDSPMPLYILKGHKDTVCSLSSGKFGTLLSGSWDTTAKVWLNDKCMMTLQGHTAAVWAVKILPEQGLMLTGSADKTIKLWKAGRCERTFLGHEDCVRGLAILSETEFLSCANDASIRRWQITGECLEVYFGHTNYIYSISVFPNSKDFVTTAEDRSLRIWKHGECAQTIRLPAQSIWCCCVLENGDIVVGASDGIIRVFTESEERTASAEEIKAFERELSQATIDSKTGDLGDINAEQLPGREHLSEPGTREGQTRLIRDGERVEAYQWSVSDGRWIKIGDVVGSSGANQQTSGKVLYEGKEFDYVFSIDVNEGGPSYKLPYNVSDDPWLVAYNFLQKNDLNPMFLDQVAKFIIDNTKGQTLGLGNTSFSDPFTGGGRYVPGTSGPSNTVQTADPFTGAGRYMPGSAGMDTTMTGVDPFTGNSAYRSAASKTVNIYFPKKEALTFDQANPTQILGKLKELNGTAPEEKKLTEDDLVLLEKILSLICNNSSEKPTAQQLQILWKAINWPEDIVFPALDILRLSIKHPNVNENFCNEKGDQFSSHLINLLNPKGKPANQLLALRTFCNCFVSQAGQKLMMSQRESLMSHAIELKSGSNKNIHIALATLTLNYSVCFHKDHNIEGKAQCLSVISTILEVVQDLEATFRLLVALGTLISDDSNAIQLAKSLGVDSQIKKYVSVSEPAKVSECCRLVLHLL
With B1, in the data set on neutrophil, the neutrophil aggregation entry was “stimulates neutrophil aggregation” and the neutrophil chemokinesis result is given as “stimulates”.

The values are drawn from US5527775A, “Reduction of mammalian neoplasms with phospholipase A2 activating substances” (Enzon, Inc., priority 1994, dated 1996).
